Laboratory results as given in BindingDB's records for doi:10.1021/acs.jmedchem.6b00608 (Chinese Academy of Sciences, 2016).

The molecules below were run against T1, Tyrosine-protein kinase receptor UFO (Homo sapiens, UniProt P30530) (assay: Inhibition of human recombinant AXL incubated for 1 to 1.5 hrs by FRET based Z'-Lyte kinase assay).
T1 sequence (P30530 whole entry): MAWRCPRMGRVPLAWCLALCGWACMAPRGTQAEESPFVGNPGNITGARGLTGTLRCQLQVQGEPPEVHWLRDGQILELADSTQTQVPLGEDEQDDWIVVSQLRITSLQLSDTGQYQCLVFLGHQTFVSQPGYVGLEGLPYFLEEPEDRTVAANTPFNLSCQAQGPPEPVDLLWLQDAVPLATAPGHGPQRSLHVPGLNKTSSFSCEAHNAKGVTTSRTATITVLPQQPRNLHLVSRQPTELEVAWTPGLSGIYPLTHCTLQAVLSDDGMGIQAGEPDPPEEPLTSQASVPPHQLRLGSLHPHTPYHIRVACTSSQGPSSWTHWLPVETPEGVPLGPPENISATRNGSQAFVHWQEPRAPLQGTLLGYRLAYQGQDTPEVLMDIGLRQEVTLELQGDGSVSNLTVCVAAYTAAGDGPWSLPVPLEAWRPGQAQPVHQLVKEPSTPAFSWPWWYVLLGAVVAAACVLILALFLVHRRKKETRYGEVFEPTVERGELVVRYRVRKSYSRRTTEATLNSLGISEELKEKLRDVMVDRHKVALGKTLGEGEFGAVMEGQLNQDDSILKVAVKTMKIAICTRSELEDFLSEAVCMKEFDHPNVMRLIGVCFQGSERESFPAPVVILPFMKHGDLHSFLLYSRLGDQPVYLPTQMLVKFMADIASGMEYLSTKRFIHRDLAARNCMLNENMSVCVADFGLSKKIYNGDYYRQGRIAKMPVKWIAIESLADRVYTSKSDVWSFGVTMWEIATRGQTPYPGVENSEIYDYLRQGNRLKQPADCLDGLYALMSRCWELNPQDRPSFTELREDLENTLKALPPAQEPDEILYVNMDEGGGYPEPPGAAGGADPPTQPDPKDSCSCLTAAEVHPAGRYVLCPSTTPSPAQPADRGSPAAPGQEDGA

IC50, > 10 µM:
Cc1c(C(=O)Nc2ccc(Oc3ncnc4[nH]cc(-c5ccccc5)c34)c(F)c2)c(=O)c2cc(F)ccc2n1C
Cc1c(C(=O)Nc2ccc(Oc3ncnc4[nH]cc(-c5ccccc5)c34)c(F)c2)c(=O)c2cc3ccccc3cc2n1C
Cc1c(C(=O)Nc2ccc(Oc3ncnc4[nH]cc(-c5ccccc5)c34)c(F)c2)c(=O)c2cc(-c3ccccc3)ccc2n1C
